Assay results published in US4240957A, “Dipeptide derivatives and their production” (Shionogi & Co., Ltd., priority 1974, dated 1980).

How the values were obtained:
Type in all cases: in vivo
DS male mice [1] = experiment: Anti-pentylenetetrazole activity; details: for Anti-pentylenetetrazol activity, ED50: given orally 60 minutes prior to pentylenetetrazol 125 mg/kg s.c., complete protection against mortality, observed two hours; for times more potent than diazepam in anti-pentylenetetrazol activity: relative to diazepam (Compound No. 5)
From the text: (1) Anti-pentylenetetrazole activity:
The convulsions were disregarded.

DS male mice [2] = experiment: Taming activity (inhibition of electroshock-induced fighting); details: for Taming activity ED50: administered 60 minutes prior, inhibition of fighting responses, 5 pairs of mice; for times more potent than diazepam in taming activity: relative to diazepam (Compound No. 5)
Protocol: This test was measured on DS male mice. […] These pairs of mice were selected in the morning and used for drug test in the afternoon. The test compound was administered to both mice of the pairs 60 minutes prior to the experiment. Results were obtained as the mean percentage of inhibition of fighting responses in a group of 5 pairs and shown by ED50 [Tedeschi, et al.: J. Pharmacol Exp. Thev., 125, 28-34 (1959)].

DS male mice [3] = experiment: Rotarod performance activity; details: fall from rod within less than 2 minutes; 10 mice per dose
Protocol: (3) Rotarod performance activity:
This test was measured on DS male mice. The mouse was put on a scraped rod of wood, 3 cm in diameter, turning at the rate of five rotations per minute. The mice that could remain on the rod for three or more minutes in successive trials were selected and placed in a group of 10 mice for each dose. If the mouse fell down from the rod within less than 2 minutes, the test compound was considered to be effective. Results were shown by ED50 [Dunham, et al.: J. Am. Pharm. Assoc., 46, 208 (1957)].

[4] = relative to chlordiazepoxide (Compound No. 4)

Row | Structure (SMILES) | Anti-pentylenetetrazol activity, ED50 (DS male mice [1]) [mg/kg] | times more potent than diazepam in anti-pentylenetetrazol activity (DS male mice [1]) [times] | Taming activity ED50 (DS male mice [2]) [mg/kg] | times more potent than diazepam in taming activity (DS male mice [2]) [times] | Rotarod performance ED50 (DS male mice [3]) [mg/kg] | times more potent than chlordiazepoxide in anti-pentylenetetrazol activity (DS male mice [1]; [4]) [times] | times more potent than chlordiazepoxide in taming activity (DS male mice [2]; [4]) [times]
1 | CN(C(=O)CNC(=O)CN)c1ccc(Cl)cc1C(=O)c1ccccc1Cl.O [Compound No. 2, 2-o-chlorobenzoyl-4-chloro-N-methyl-N^α -glycyl-glycinanilide hydrate] | 0.58 | 2 to 4 | 3.0 | 2 to 4 |  |  | 
2 | CN(C(=O)CNC(=O)CN)c1ccc(Cl)cc1C(=O)c1ccccc1F.Cl [Compound No. 3, 2-o-fluorobenzoyl-4-chloro-N-methyl-N^α -glycyl-glycinanilide hydrochloride] | 0.33 | 2 to 4 | 1.6 | 2 to 4 | 17.0 |  | 
3 | CN(C(=O)CNC(=O)CN)c1ccc(Cl)cc1C(=O)c1ccccc1 [Compound No. 1, 2-benzoyl-4-chloro-N-methyl-N^α -glycyl-glycinanilide] | 1.0 |  |  |  |  | 2 to 3 | 2 to 3
